Test results taken from PubChem BioAssay AID248 (DTP/NCI, 2004).
Several values for one entry are separate records, joined by “and”; a condition that tells them apart may be missing. Identical values can stand only once. Inconclusive results and toxic doses are left out. No stated cut-off is given here; in the data, active means T/C of 150% or more; inactive means T/C below 125%.

Tested on: L1210 leukemia ip in BDF1 mice, survival T/C
Test: NCI In Vivo Anticancer Drug Screen. Data for tumor model L1210 Leukemia (intraperitoneal) in B6D2F1 (BDF1) mice
Conditions: endpoint: mean survival time, higher = longer survival
Method in brief: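 Transplantable tumor model; survival measured in treated vs vehicle control mice. Value = treated/control.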

[1] = dose: 100.0 mg/kg/injection, schedule: Q04DX002 (ip), vehicle: Klucel (hydroxypropylcellulose) (HPC)
[2] = dose: 200.0 mg/kg/injection, schedule: Q04DX002 (ip), vehicle: Klucel (hydroxypropylcellulose) (HPC)
[3] = dose: 400.0 mg/kg/injection, schedule: Q04DX002 (ip), vehicle: Klucel (hydroxypropylcellulose) (HPC)
[4] = dose: 100.0 mg/kg/injection, schedule: Q04DX003 (ip), vehicle: saline with Tween-80
[5] = dose: 200.0 mg/kg/injection, schedule: Q01DX009 (ip), vehicle: saline with Tween-80
[6] = dose: 200.0 mg/kg/injection, schedule: Q04DX003 (ip), vehicle: saline with Tween-80
[7] = dose: 400.0 mg/kg/injection, schedule: Q01DX009 (ip), vehicle: saline with Tween-80
[8] = dose: 400.0 mg/kg/injection, schedule: Q04DX003 (ip), vehicle: saline with Tween-80
[9] = dose: 100.0 mg/kg/injection, schedule: Q01DX009 (ip), vehicle: saline with Tween-80
[10] = dose: 100.0 mg/kg/injection, schedule: Q01DX009 (ip), vehicle: Klucel (hydroxypropylcellulose) (HPC)
[11] = dose: 100.0 mg/kg/injection, schedule: Q04DX003 (ip), vehicle: Klucel (hydroxypropylcellulose) (HPC)
[12] = dose: 200.0 mg/kg/injection, schedule: Q01DX009 (ip), vehicle: Klucel (hydroxypropylcellulose) (HPC)
[13] = dose: 400.0 mg/kg/injection, schedule: Q01DX009 (ip), vehicle: Klucel (hydroxypropylcellulose) (HPC)
[14] = dose: 100.0 mg/kg/injection, schedule: Q01DX001 (ip), vehicle: saline
[15] = dose: 200.0 mg/kg/injection, schedule: Q01DX001 (ip), vehicle: saline
[16] = dose: 100.0 mg/kg/injection, schedule: Q01DX001 (ip), vehicle: Klucel (hydroxypropylcellulose) (HPC)
[17] = dose: 100.0 mg/kg/injection, schedule: Q01DX001 (ip), vehicle: carboxymethylcellulose (CMC)
[18] = dose: 200.0 mg/kg/injection, schedule: Q01DX001 (ip), vehicle: carboxymethylcellulose (CMC)
[19] = dose: 400.0 mg/kg/injection, schedule: Q01DX001 (ip), vehicle: carboxymethylcellulose (CMC)
[20] = dose: 100.0 mg/kg/injection, schedule: Q04DX003 (ip), vehicle: saline
[21] = dose: 200.0 mg/kg/injection, schedule: Q04DX003 (ip), vehicle: saline
[22] = dose: 400.0 mg/kg/injection, schedule: Q04DX003 (ip), vehicle: saline
[23] = dose: 12.5 mg/kg/injection, schedule: Q01DX009 (ip), vehicle: Klucel (hydroxypropylcellulose) (HPC)
[24] = dose: 25.0 mg/kg/injection, schedule: Q04DX003 (ip), vehicle: Klucel (hydroxypropylcellulose) (HPC)
[25] = dose: 50.0 mg/kg/injection, schedule: Q04DX003 (ip), vehicle: Klucel (hydroxypropylcellulose) (HPC)

Measured: T/C

CCCCCCCC/C=C\CCCCCCCCOC(=O)Cc1ccc(N(CCCl)CCCl)cc1
inactive: dose: 100.0 mg/kg/injection, schedule: Q01DX005 (ip), vehicle: Klucel (hydroxypropylcellulose) (HPC) 119 % of control | [1] 121 % of control | dose: 200.0 mg/kg/injection, schedule: Q01DX005 (ip), vehicle: Klucel (hydroxypropylcellulose) (HPC) 115 % of control | [2] 117 % of control | [3] 121 % of control

COC(OC)c1cc(=O)n(C)c(=O)[nH]1
inactive: [4] 104 % of control | [5] 93 % of control | [6] 104 % of control | [7] 89 % of control | [8] 100 % of control

Cc1cc(Br)c2ccccc2c1NS(=O)(=O)c1ccccc1
inactive: [9] 100 % of control | [4] 109 % of control | [5] 90 % of control | [6] 100 % of control | [7] 92 % of control | [8] 105 % of control

COc1cc2c(cc1OC)N(S(=O)(=O)c1ccc(C)cc1)CCCC2=O
inactive: [10] 96 % of control | [11] 96 % of control | [12] 91 % of control | dose: 200.0 mg/kg/injection, schedule: Q04DX003 (ip), vehicle: Klucel (hydroxypropylcellulose) (HPC) 93 % of control | [13] 93 % of control | dose: 400.0 mg/kg/injection, schedule: Q04DX003 (ip), vehicle: Klucel (hydroxypropylcellulose) (HPC) 102 % of control

NC(N)=NCCCC(NC(=O)OCc1ccccc1)C(=O)Nc1ccc2ccccc2c1 (centres undefined)
inactive: [10] 102 % of control | [12] 103 % of control

ON=C1CCC(=NO)CC1
inactive: dose: 100.0 mg/kg/injection, schedule: Q01DX001 (ip), vehicle: saline with Tween-80 95 % of control | dose: 200.0 mg/kg/injection, schedule: Q01DX001 (ip), vehicle: saline with Tween-80 98 % of control | dose: 400.0 mg/kg/injection, schedule: Q01DX001 (ip), vehicle: saline with Tween-80 103 % of control

O=C(N/N=C/c1ccc2c(c1)OCO2)c1ccncc1
inactive: [9] 102 % of control | [5] 94 % of control | [7] 104 % of control

CN1CCN(C(=O)c2ccccc2C(=O)O)CC1
inactive: [14] 101 % of control | [15] 96 % of control

O=C(O)CNCc1ccc2c(c1)OCCO2
inactive: [16] 108 % of control | dose: 200.0 mg/kg/injection, schedule: Q01DX001 (ip), vehicle: Klucel (hydroxypropylcellulose) (HPC) 92 % of control | dose: 400.0 mg/kg/injection, schedule: Q01DX001 (ip), vehicle: Klucel (hydroxypropylcellulose) (HPC) 95 % of control

CC(CC(=O)c1ccc2ccccc2c1)C(=O)O (centres undefined)
inactive: dose: 75.0 mg/kg/injection, schedule: Q04DX003 (ip), vehicle: Klucel (hydroxypropylcellulose) (HPC) 97 % of control | dose: 150.0 mg/kg/injection, schedule: Q04DX003 (ip), vehicle: Klucel (hydroxypropylcellulose) (HPC) 92 % of control | dose: 300.0 mg/kg/injection, schedule: Q04DX003 (ip), vehicle: Klucel (hydroxypropylcellulose) (HPC) 107 % of control

Brc1ccc2oc3ccccc3c2c1
inactive: dose: 50.0 mg/kg/injection, schedule: Q04DX002 (ip), vehicle: Klucel (hydroxypropylcellulose) (HPC) 92 % of control | [1] 93 % of control | dose: 100.0 mg/kg/injection, schedule: Q04DX002 (ip), vehicle: saline 104 % of control | [2] 96 % of control | [3] 100 % of control | dose: 400.0 mg/kg/injection, schedule: Q04DX002 (ip), vehicle: saline 93 % of control

C=CCNC(=O)OCC
inactive: [4] 100 % of control | [6] 95 % of control | [8] 100 % of control

Nc1nc(N)c(N=Nc2ccc(S(=O)(=O)Nc3ccccn3)cc2)cc1N=Nc1ccccc1
inactive: [17] 94 % of control | [18] 102 % of control | [19] 103 % of control

O=C(O)c1ccccc1C(=O)NCc1ccco1
inactive: dose: 50.0 mg/kg/injection, schedule: Q01DX001 (ip), vehicle: other 94 % of control | dose: 100.0 mg/kg/injection, schedule: Q01DX001 (ip), vehicle: other 105 % of control | dose: 200.0 mg/kg/injection, schedule: Q01DX001 (ip), vehicle: other 105 % of control | dose: 400.0 mg/kg/injection, schedule: Q01DX001 (ip), vehicle: other 100 % of control

COc1ccc(/C=C/C(=O)c2ccc3cc(OC)c(OC)cc3c2)cc1OC
inactive: [20] 91 % of control | [21] 89 % of control | [22] 87 % of control

CC(=O)OC1CC2c3ccccc3C1c1cccc[n+]12 (centres undefined)
inactive: dose: 12.5 mg/kg/injection, schedule: Q01DX001 (ip), vehicle: Klucel (hydroxypropylcellulose) (HPC) 97 % of control | [23] 100 % of control | dose: 25.0 mg/kg/injection, schedule: Q01DX001 (ip), vehicle: Klucel (hydroxypropylcellulose) (HPC) 101 % of control | dose: 25.0 mg/kg/injection, schedule: Q01DX009 (ip), vehicle: Klucel (hydroxypropylcellulose) (HPC) 102 % of control | [24] 101 % of control | dose: 50.0 mg/kg/injection, schedule: Q01DX001 (ip), vehicle: Klucel (hydroxypropylcellulose) (HPC) 105 % of control | dose: 50.0 mg/kg/injection, schedule: Q01DX009 (ip), vehicle: Klucel (hydroxypropylcellulose) (HPC) 104 % of control | [25] 94 % of control | dose: 75.0 mg/kg/injection, schedule: Q01DX009 (ip), vehicle: Klucel (hydroxypropylcellulose) (HPC) 88 % of control | [16] 101 % of control

Cc1ccc(C)c2c3c(sc12)CCCC3
inactive: [17] 95 % of control | [18] 90 % of control | [19] 101 % of control

NC1CCC(Cl)CC1 (centres undefined)
inactive: [14] 95 % of control | [20] 99 % of control | [15] 106 % of control | [21] 99 % of control | dose: 400.0 mg/kg/injection, schedule: Q01DX001 (ip), vehicle: saline 92 % of control

N#C/C(=C/c1ccncc1)C(N)=O
inactive: [4] 98 % of control | [6] 94 % of control | [8] 99 % of control

O=C(COc1ccccc1)NCCc1ccccc1
inactive: dose: 100.0 mg/kg/injection, schedule: Q04DX003 (ip), vehicle: gum acacia 97 % of control | dose: 200.0 mg/kg/injection, schedule: Q04DX003 (ip), vehicle: gum acacia 108 % of control | dose: 400.0 mg/kg/injection, schedule: Q04DX003 (ip), vehicle: gum acacia 95 % of control

O=C1OC(c2ccc([N+](=O)[O-])cc2)=N/C1=C\c1cc(Br)ccc1O
inactive: [10] 91 % of control | [12] 96 % of control | [13] 93 % of control

CN(C)c1ccccc1CN1CCCN(Cc2ccccc2N(C)C)C1c1ccncc1
inactive: dose: 6.0 mg/kg/injection, schedule: Q12HX018 (ip), vehicle: other 96 % of control | dose: 12.0 mg/kg/injection, schedule: Q12HX018 (ip), vehicle: other 103 % of control | dose: 24.0 mg/kg/injection, schedule: Q12HX018 (ip), vehicle: other 101 % of control

O=C1OCC2(CO)SC(c3ccccc3)NC12 (centres undefined)
inactive: [20] 98 % of control | [21] 92 % of control | [22] 98 % of control

Clc1ccc2nc(CBr)cnc2c1
inactive: dose: 3.13 mg/kg/injection, schedule: Q01DX009 (ip), vehicle: Klucel (hydroxypropylcellulose) (HPC) 97 % of control | dose: 6.25 mg/kg/injection, schedule: Q01DX009 (ip), vehicle: Klucel (hydroxypropylcellulose) (HPC) 95 % of control and 102 % of control | [23] 100 % of control and 120 % of control and 87 % of control | dose: 25.0 mg/kg/injection, schedule: Q01DX009 (ip), vehicle: saline with Tween-80 100 % of control | [24] 95 % of control | dose: 50.0 mg/kg/injection, schedule: Q01DX009 (ip), vehicle: saline with Tween-80 95 % of control | [25] 96 % of control | [11] 93 % of control | [4] 90 % of control
